# Assay results as given in ChEMBL document CHEMBL1201862, “PubChem BioAssay data set” (2004).
# The source made the active and inactive calls. Rule as the data show it, for most assays here: actives have a measured EC50 and inactives only a lower limit.
# How the values were obtained:
# [1] = Luminescence Cell-Based Dose Confirmation HTS to Identify Activators of 5'UTR Stem-Loop Driven Alpha-Synuclein mRNA Translation in H4 Neuroglioblastoma Cells. [Related pubchem assays: 1829 (Project Summary), 1814 (Primary HTS)]; type: functional
# H4 = assay: Luminescence Cell-Based Dose Response HTS to Identify Activators of 5'UTR Stem-Loop Driven Prion Protein mRNA Translation in H4 Neuroglioblastoma Cells. [Related pubchem assays: 1829 (Project Summary), 1814 (Primary HTS)]; type: functional; details: Homo sapiens
# [2] = Luminescence Cell-Based Dose Response HTS to Identify Activators of Luciferase Translation or Activity in H4 […] Cells. [Related pubchem assays: 1829 (Project Summary), 1814 (Primary HTS)]; type: functional
# [3] = target: T1, Polyadenylate-binding protein 1 (Homo sapiens, UniProt P11940); assay: MLLE domain peptide-binding blockers, IC50 – biochemical, fluorescence polarization, FITC-PAM2 peptide, dose response (AID 602259); type: functional; details: read-out: IC50_Mean
# T1 sequence (P11940 whole entry, the tested form may be a part): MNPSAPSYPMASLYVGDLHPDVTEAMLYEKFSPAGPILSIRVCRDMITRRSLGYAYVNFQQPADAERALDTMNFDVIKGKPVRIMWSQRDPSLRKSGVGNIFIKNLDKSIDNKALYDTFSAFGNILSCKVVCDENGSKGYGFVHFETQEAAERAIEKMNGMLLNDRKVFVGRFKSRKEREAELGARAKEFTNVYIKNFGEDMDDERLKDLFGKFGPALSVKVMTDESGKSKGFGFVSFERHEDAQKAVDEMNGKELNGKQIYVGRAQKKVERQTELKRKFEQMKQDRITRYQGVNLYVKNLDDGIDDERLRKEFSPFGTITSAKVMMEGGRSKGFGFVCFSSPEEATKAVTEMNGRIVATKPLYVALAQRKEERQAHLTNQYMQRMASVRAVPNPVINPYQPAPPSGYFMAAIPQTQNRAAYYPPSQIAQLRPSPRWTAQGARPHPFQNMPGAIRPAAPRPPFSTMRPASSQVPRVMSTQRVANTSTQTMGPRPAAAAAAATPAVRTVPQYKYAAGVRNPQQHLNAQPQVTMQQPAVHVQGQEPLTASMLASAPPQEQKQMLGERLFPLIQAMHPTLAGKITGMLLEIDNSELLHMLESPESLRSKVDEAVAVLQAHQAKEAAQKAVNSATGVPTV
# [4] = target: T1, Polyadenylate-binding protein 1; assay: MLLE binding blockers, Cy5 peptide tracer – biochemical, fluorescence polarization, Cy5-PAM2 peptide, secondary, miRNA deadenylation inhibitor project, dose response (AID 602260); type: functional; details: read-out: IC50_Mean
# Paired box protein Pax-8 = Paired box protein Pax-8 (Homo sapiens, UniProt Q06710); assay: PAX8 transcriptional activity inhibition in RMG-I – RMG-I cells, luciferase, cherry-pick, dose response (AID 687027); type: functional, cell-based;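 also: luciferase reporter driven by Pax8 target thyroperoxidase promoter measured by SteadyGlo luminescence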
# Paired box protein Pax-8, sequence (Q06710 whole entry): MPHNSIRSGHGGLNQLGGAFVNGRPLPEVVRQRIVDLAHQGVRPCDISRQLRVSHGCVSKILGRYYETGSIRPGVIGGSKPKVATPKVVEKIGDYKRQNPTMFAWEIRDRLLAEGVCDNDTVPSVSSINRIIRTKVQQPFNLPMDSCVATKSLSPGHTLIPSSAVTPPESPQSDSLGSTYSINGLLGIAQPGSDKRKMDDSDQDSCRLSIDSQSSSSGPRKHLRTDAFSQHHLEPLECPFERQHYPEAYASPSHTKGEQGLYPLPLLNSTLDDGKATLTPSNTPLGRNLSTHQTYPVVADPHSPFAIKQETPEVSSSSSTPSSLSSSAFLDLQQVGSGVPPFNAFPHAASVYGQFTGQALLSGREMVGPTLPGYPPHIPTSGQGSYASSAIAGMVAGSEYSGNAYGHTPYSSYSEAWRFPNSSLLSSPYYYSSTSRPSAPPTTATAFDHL
# [5] = target: T2, Heat shock factor protein 1 (Mus musculus, UniProt P38532); assay: decrease of HSF1-responsive luciferase luminescence – cell-based, NIH3T3, dose retest, confirmation (AID 2382); type: functional;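 also: NIH3T3 fibroblasts with HSF1-driven luciferase reporter stressed by proteasome inhibitor MG132; luminescence from HSF1-driven luciferase expression after 8 hours of MG132 stress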
# T2 sequence (P38532 whole entry): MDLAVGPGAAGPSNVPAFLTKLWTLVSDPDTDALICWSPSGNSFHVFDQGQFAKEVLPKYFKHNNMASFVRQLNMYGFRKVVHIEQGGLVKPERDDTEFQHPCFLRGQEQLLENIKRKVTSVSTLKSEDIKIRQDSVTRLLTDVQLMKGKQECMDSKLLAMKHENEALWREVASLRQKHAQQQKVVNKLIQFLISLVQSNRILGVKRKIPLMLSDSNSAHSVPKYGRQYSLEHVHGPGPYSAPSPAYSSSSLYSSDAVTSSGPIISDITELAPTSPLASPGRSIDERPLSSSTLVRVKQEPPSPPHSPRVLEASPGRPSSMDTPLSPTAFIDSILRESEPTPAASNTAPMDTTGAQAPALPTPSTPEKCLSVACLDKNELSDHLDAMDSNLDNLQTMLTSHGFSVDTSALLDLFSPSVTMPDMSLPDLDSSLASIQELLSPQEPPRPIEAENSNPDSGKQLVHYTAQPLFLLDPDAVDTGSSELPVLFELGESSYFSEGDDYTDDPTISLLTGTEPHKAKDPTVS
# [6] = Luminescence Cell-Based Dose Retest to Confirm Inhibitors of Cancer Stem Cells. [Related pubchem assays (depositor defined):AID2717, AID2721]; type: functional; details: Homo sapiens
# [7] = luciferase reporter signal suppression in cells – H4 neuroglioma cells, luminescence, dose response (AID 1990); type: functional, cell-based
# [8] = alpha-synuclein stem-loop luciferase translation blockers – H4 neuroglioma cells, luminescence, confirmation (AID 1988); type: functional, cell-based
# [9] = Luminescence Cell-Based Dose Response HTS to Identify Inhibitors of 5'UTR Stem-Loop Driven Prion Protein mRNA Translation in H4 Neuroglioblastoma Cells. [Related pubchem assays: 1827 (Project Summary), 1813 (Primary HTS)]; type: functional
# [10] = Luminescence Cell-Based Dose Confirmation HTS to Identify Inhibitors of Platelet Dense Granule Release. [Related pubchem assays: 1663 (Primary HTS), 1678 (Summary of Project)]; type: functional
# [11] = target: Luciferin 4-monooxygenase (Photinus pyralis, UniProt P08659); assay: inhibition of purified Photinus pyralis luciferase – biochemical, luminescence, dose response (AID 1891)
# Luciferin 4-monooxygenase, sequence (P08659 whole entry): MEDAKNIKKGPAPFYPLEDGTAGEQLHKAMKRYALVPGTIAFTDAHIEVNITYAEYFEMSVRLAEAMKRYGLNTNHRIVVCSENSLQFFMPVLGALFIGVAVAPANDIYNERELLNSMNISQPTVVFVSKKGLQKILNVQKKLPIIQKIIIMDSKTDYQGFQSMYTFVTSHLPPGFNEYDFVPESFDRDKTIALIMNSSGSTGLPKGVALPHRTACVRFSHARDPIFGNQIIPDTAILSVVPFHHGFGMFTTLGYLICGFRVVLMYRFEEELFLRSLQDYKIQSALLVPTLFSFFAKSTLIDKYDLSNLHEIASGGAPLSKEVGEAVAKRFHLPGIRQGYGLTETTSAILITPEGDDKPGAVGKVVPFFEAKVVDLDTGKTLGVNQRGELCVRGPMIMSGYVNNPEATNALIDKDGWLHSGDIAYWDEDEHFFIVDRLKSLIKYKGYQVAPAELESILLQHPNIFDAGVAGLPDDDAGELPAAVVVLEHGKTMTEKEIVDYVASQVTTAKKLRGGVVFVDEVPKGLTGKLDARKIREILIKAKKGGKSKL
# Cytochrome P450 2C9 = Cytochrome P450 2C9 (Homo sapiens, UniProt P11712)
# Cytochrome P450 2C9, sequence (P11712 whole entry): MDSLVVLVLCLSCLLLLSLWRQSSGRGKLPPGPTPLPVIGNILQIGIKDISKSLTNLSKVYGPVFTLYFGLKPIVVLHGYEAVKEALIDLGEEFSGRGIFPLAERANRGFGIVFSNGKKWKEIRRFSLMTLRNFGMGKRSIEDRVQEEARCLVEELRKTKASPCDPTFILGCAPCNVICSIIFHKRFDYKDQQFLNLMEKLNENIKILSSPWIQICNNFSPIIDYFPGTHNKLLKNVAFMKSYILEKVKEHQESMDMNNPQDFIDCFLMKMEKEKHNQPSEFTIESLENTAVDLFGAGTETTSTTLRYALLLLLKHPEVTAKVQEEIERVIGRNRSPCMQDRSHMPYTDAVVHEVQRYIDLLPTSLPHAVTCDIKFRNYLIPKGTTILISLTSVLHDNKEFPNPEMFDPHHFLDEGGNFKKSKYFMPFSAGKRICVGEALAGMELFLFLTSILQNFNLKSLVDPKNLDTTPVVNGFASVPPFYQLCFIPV
# [12] = system: Streptococcus sp. 'group A'; assay: Streptococcus pyogenes SK(-)GAS viability under kanamycin – luminescence, BacTiterGlo, confirmation, counter-screen for streptokinase expression inhibitor project, dose response (AID 1900); type: functional, organism-based
# Streptococcus = assay: GAS UMAA2166 growth inhibition – luminescence, BacTiterGlo, counter-screen for streptokinase expression inhibitor project, dose response (AID 1915); type: functional, organism-based;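 also: potency for reduction of bacterial viability or growth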
# Streptokinase A = target: T3, Streptokinase A (Streptococcus pyogenes serotype M1, UniProt P10520); assay: viability-normalized secreted streptokinase activity reduction – plasminogen activation absorbance, OD405, dose response (AID 1914); type: functional, Streptococcus pyogenes M1 GAS;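 also: secreted streptokinase activity via plasminogen activation per viability signal from cell pellet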
# T3 sequence (P10520 whole entry): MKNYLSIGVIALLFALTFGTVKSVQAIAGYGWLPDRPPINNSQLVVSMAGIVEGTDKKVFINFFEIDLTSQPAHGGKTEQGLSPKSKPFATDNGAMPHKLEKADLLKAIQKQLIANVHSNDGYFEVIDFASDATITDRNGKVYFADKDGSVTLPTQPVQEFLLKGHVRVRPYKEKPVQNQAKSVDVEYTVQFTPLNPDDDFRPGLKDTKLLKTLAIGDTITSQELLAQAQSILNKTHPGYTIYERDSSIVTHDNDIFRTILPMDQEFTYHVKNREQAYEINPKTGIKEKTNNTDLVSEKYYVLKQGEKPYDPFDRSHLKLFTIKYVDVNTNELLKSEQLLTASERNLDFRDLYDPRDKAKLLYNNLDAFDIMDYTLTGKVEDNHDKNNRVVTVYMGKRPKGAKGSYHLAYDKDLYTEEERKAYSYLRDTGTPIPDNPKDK
compound,measurement,setting,value
COC(=O)c1sccc1N/N=C/c1ccc(OC)c(OC)c1OC,EC50,[1],87.4 µM (active)
same,EC50,H4,40.6 µM (active)
same,EC50,[2],9.96 µM (active)
COCCn1c(SCC(=O)NCC2CCCO2)nc2c(c1=O)SCC2 (stereo not drawn),IC50,[3],> 66 µM (inactive)
same,IC50,[4],> 66 µM (inactive)
COc1cccc(S(=O)(=O)N(C)C[C@H]2OCc3ccccc3-c3c(n(C)c4ccccc34)C(=O)N([C@@H](C)CO)C[C@H]2C)c1,AC50,Paired box protein Pax-8,6.16 µM (active)
O=C1OC(NC(=O)c2ccccc2)C(n2cc(CO)nn2)=C1Cl (stereo not drawn),EC50,[5],35.7 µM (active)
OCCNc1nc2nonc2nc1NCCO,EC50,[5],> 195 µM (not active)
CC(C)c1nnc(SCC(=O)NCCC2=CCCCC2)n1N,IC50,[3],> 66 µM (inactive)
same,IC50,[4],> 66 µM (inactive)
Cc1cc(NC(=O)CSc2nccn2-c2cccc(Cl)c2)no1,IC50,[3],> 66 µM (inactive)
same,IC50,[4],> 66 µM (inactive)
c1csc(-c2nnsc2-c2nc3ccccc3[nH]2)c1,EC50,[5],> 195 µM (not active)
CC(=O)Nc1ccc(Nc2nc(-c3cc4ccccc4oc3=O)cs2)cc1,EC50,[1],0.397 µM (active)
same,EC50,H4,1.7 µM (active)
same,EC50,[2],0.676 µM (active)
COc1ccc(C(=S)N2CCN(c3ccccc3C)CC2)cc1,IC50,[3],> 66 µM (inactive)
same,IC50,[4],> 66 µM (inactive)
Cc1nnc2nc(SCC(=O)NC3CCCCC3)n(-c3ccc(Br)cc3)c(N)c1-2,AC50,[6],9.82 µM (active)
same,EC50,[7],14.6 µM (active)
same,EC50,[8],9.53 µM (active)
same,AC50,Paired box protein Pax-8,8.51 µM (active)
same,EC50,[9],13.9 µM (active)
CC1CC(c2ccccc2)=Nc2ccccc2N1 (stereo not drawn),EC50,[1],8.32 µM (active)
same,EC50,H4,43 µM (active)
same,EC50,[2],10.6 µM (active)
Cc1ccc(S(=O)(=O)N2CCCC(C(=O)NCCc3ccc4c(c3)OCO4)C2)cc1 (stereo not drawn),EC50,[5],> 195 µM (not active)
CC1CC(C)(C)NC(=S)S1 (stereo not drawn),IC50,[3],> 66 µM (inactive)
same,IC50,[4],> 66 µM (inactive)
Cc1cc(C#N)c2ccccc2n1,EC50,[10],> 112 µM (not active)
same,EC50,[11],> 112 µM (not active)
CCOC(=O)c1sc2nc(NC(=O)C3CC3)sc2c1C,EC50,[1],10.8 µM (active)
same,EC50,H4,28.4 µM (inconclusive)
same,EC50,[2],57.6 µM (active)
O=C(Cc1ccc2c(c1)CCCC2)Nc1ccccc1Br,AC50,Cytochrome P450 2C9,15.8 µM (inconclusive)
same,IC50,[3],> 66 µM (inactive)
same,IC50,[4],> 66 µM (inactive)
Cc1ccccc1OCC(=O)Nc1ccc2c(c1)C(=O)N(CCC(=O)O)C2=O,EC50,[5],32.6 µM (active)
Cc1ccc(-n2c(C)cc3c2CCCC3=O)cc1,IC50,[3],41.2 µM (inactive)
same,IC50,[4],> 66 µM (inactive)
CCc1ccc(C(=O)Nn2cnc3ccccc3c2=O)cc1,EC50,[1],2.82 µM (active)
same,EC50,H4,0.887 µM (active)
same,EC50,[2],26.8 µM (active)
Cc1cccc(CC(=O)N2CCN=C2SCc2ccc([N+](=O)[O-])cc2)c1,IC50,[3],> 66 µM (inactive)
same,IC50,[4],> 66 µM (inactive)
COc1ccc(OCC(=O)N2CCN(c3cccc(C(F)(F)F)c3)CC2)cc1,EC50,[5],> 195 µM (not active)
Oc1ccc[n+](CCCCC[n+]2cccc(O)c2)c1,EC50,[10],19 µM (active)
same,EC50,[11],> 112 µM (not active)
COc1cc(NC(=O)CSc2nnnn2-c2ccccc2)cc(OC)c1OC,EC50,[5],> 195 µM (not active)
COc1ccc(C(=O)NC(=S)NCCO)cc1Br,EC50,[5],> 195 µM (not active)
CCOC(=O)C1(Cc2ccc(OC)cc2)CCN(C(=O)c2csc(C)n2)CC1,EC50,[5],> 195 µM (not active)
COc1ccccc1N1CCN(C(=O)CSc2ncnc3c2cnn3-c2ccc(C)c(C)c2)CC1,EC50,[1],39.4 µM (active)
same,EC50,H4,54.1 µM (active)
same,EC50,[2],15.4 µM (active)
COc1ccc(Cl)cc1NC(=O)Nc1cc(C)on1,EC50,[10],> 112 µM (not active)
same,EC50,[11],> 112 µM (not active)
CC1(Cc2ccc(OC(F)(F)F)cc2)C(=O)Nc2ccc(S(=O)(=O)NC3CCCCC3)cc21 (stereo not drawn),AC50,Paired box protein Pax-8,9.35 µM (active)
O=C(NCCc1ccccc1)c1ccccc1NC(=O)C1CCCCC1C(=O)O (stereo not drawn),EC50,[1],19.1 µM (active)
same,EC50,H4,5.14 µM (active)
same,EC50,[2],17.9 µM (active)
O=C(CSc1ccc2nnc(-c3ccccc3)n2n1)N1CCCCC1,IC50,[3],> 66 µM (inactive)
same,IC50,[4],> 66 µM (inactive)
CC(=O)C1C(c2ccc(Cl)cc2)NC(=O)NC1(O)C(F)(F)F (stereo not drawn),EC50,[10],> 112 µM (not active)
same,EC50,[11],> 112 µM (not active)
C[C@H](CO)N1C[C@H](C)[C@@H](CN(C)CC2CCCCC2)Oc2ccc(NC(=O)Nc3ccc4c(c3)OCO4)cc2CC1=O,AC50,Paired box protein Pax-8,11 µM (active)
Cc1cccc(NC2(C(F)(F)F)N=C3SCCN3C2=O)n1 (stereo not drawn),IC50,[3],> 66 µM (inactive)
same,IC50,[4],> 66 µM (inactive)
O=C(c1ccccc1)N(CCO)Cc1cc2cc3c(cc2nc1O)OCCO3,IC50,[3],> 66 µM (inactive)
same,IC50,[4],> 66 µM (inactive)
Fc1ccc(-c2csc3ncnc(N4CCc5ccccc5C4)c23)cc1,EC50,[12],9.67 µM (active)
same,EC50,Streptococcus,> 50 µM (not active)
same,EC50,[7],23.6 µM (active)
same,EC50,[8],> 120 µM (not active)
same,EC50,Streptokinase A,6.92 µM (active)
same,EC50,[9],> 120 µM (not active)
O=C(/C=C/c1ccccc1)NC(=S)Nc1ccccc1O,EC50,[1],0.387 µM (active)
same,EC50,H4,1.9 µM (active)
same,EC50,[2],66.3 µM (active)
CC(=O)Nc1c(I)c(NC(C)=O)c(I)c(C(=O)O)c1I [DIATRIZOATE MEGLUMINE],EC50,[5],> 195 µM (not active)
COC(=O)c1[nH]c2ccccc2c1NC(=O)CN1CCN(C(=O)c2ccco2)CC1,EC50,[10],> 112 µM (not active)
same,EC50,[11],> 112 µM (not active)
Cc1cc(C)cc(NC(S)=Nc2ccc(Cl)c(Cl)c2)c1,IC50,[3],> 66 µM (inactive)
same,IC50,[4],> 66 µM (inactive)
